Measured values from US9700609B2, “Compositions for treatment and/or prevention of autoimmune disorders” (University of Florida Research Foundation, Incorporated, priority 2013, dated 2017).

What was measured:
[1] = tested on: CD11b+ and CD11c+ leukocytes (APC); test: APC frequency and MHC expression by flow cytometry in splenocyte cultures with graded doses of bacteria and anti-CD3; format: cell-based, NOD and NOR mice
Procedure: FIG. 8. LjN6.2, but not LrTD1, increases APC activation in NOD mice. Spleenocytes derived from NOD or NOR mice, were cultured with graded doses of LjN6.2 or LrTD1 in the presence of anti-CD3. Following 48 hours incubation, samples were analyzed through flow cytometry for APC activation. A) Histograms showing changes in CD11b and CD11c frequencies upon treatment of NOD in vitro leukocyte cultures with LjN6.2 (red), LrTD1(black) or CD3 (shaded). B) Graphs showing percentage of CD11b^+ and CD11c^+ leukocytes in NOD and NOR cells cultures incubated with graded doses of bacteria as indicated. C) Graphs showing changes in MHC expression levels on CD11c^+ and CD11b^+ APC upon treatment with graded doses of LjN6.2 (shaded square) or LrTD1 (open square).
(§1) Whole lymphocytes or BMOC were incubated with 4 μg/mL anti-CD3, (LjN6.2) and/or L. reuteri TD1 (LrTD1) at various concentrations as indicated. At 48 hours, 100 μL of supernatant was removed from each well and replenished with fresh medium. Cytokine ELISAs were subsequently performed on harvested supernatants. ELISA kits were purchased from BD Bioscience: anti-IFNγ (555138; BD Biosciences, San Diego, Calif.), and anti-IL6 (555240). Capture mAb (555068) and detection mAb (555067) for IL17 were purchased from BD Biosciences. Cytokine standard for IL-17A was purchased from eBioscience (14-8171-80).
(§2) Single cell suspensions of pooled LN (axillary, inguinal, brachial, mesenteric, and superficial cervical), and spleen were stained with the following mAbs for flow-cytometric analysis: anti-CD4-Pacific Blue (RM4-5), anti-MHC I-FitC (KH95), anti-CD11c-PE (N418; eBioscience, San Diego, Calif.), anti-B220-APC (RA3-6B2, eBioscience), anti-CD11b-A700 (M1/70), anti-CD11b-FitC (M1/70, eBioscience), […] (N418, eBioscience), anti CD86-A700 (GL1), anti-CD80-PE (16-10A1), DEC 205-APC (205yekta) and anti-MHC II-FC (39-10-8) mAb. All flow cytometry antibodies were purchased from BD PharMingen unless otherwise stated. 50,000-100,000 live events were collected on a LSRII (BD PharMingen) and analyzed using FlowJo software (Tree Star, San Carlos, Calif.). The absolute numbers of cells recovered from various organs was determined by multiplying the total number of cells isolated from various tissues by the percentage of total cells bearing a lineage specific marker denoted by flow cytometry.

[2] = tested on: BBDP rats; details: cited from earlier work; for Th17 bias: BBDP rat and NOD mouse (Lau et al. (2011)); for T1D resistance: oral transfer to BBDP rats (Valladares et al. (2010))
[3] = tested on: DEC205 on CD11c+ DC; test: DEC205 expression on CD11c+ DC in splenocyte cultures, flow cytometry; format: cell-based, NOD and NOR mice; details: both NOD and NOR CD11c+ DC, dose dependent
Procedure: FIG. 9. Enhanced DC maturation mediated by LjN6.2 surface antigens. Spleenocytes derived from NOD or NOR mice, were cultured with graded doses of LjN6.2 or LrTD1in the presence of anti-CD3, as in FIG. 4. Subsequent to incubation, samples were analyzed for expression of the endocytic marker, DEC 205. A) Overlay histograms showing changes in DEC205 frequency on CD11c^+ DC upon treatment of NOD cultures with varying doses of LjN6.2 and LrTD1. B) Graphical representations of DEC205 expression on CD11c^+ DC present within NOD and NOR cultures upon incubation with varying doses of LjN6.2 and LrTD1. […]
as §2, with “All flow cytometry antibodies were purchased from BD PharMingen unless otherwise stated.” left out, “The absolute numbers of cells recovered from various organs was determined by multiplying the total number of cells isolated from various tissues by the percentage of total cells bearing a lineage specific marker denoted by flow cytometry.” left out

[4] = tested on: BMDC; test: IL6 production by BMDC incubated with LjN6.2 or lysed bacterial components, ELISA; format: cell-based, NOD mice; details: NOD BMDC matured with GM-CSF
Procedure: FIG. 9. Enhanced DC maturation mediated by LjN6.2 surface antigens. Spleenocytes derived from NOD or NOR mice, were cultured with graded doses of LjN6.2 or LrTD1in the presence of anti-CD3, as in FIG. 4. Subsequent to incubation, samples were analyzed for expression of the endocytic marker, DEC 205. A) Overlay histograms showing changes in DEC205 frequency on CD11c^+ DC upon treatment of NOD cultures with varying doses of LjN6.2 and LrTD1. B) Graphical representations of DEC205 expression on CD11c^+ DC present within NOD and NOR cultures upon incubation with varying doses of LjN6.2 and LrTD1. C) Maturing DC (BMDC), derived from NOD mice were matured in the presence of GM-CSF, followed by incubation with LjN6.2 or beadbeater lysed LjN6.2 bacterial cellular components. Left, graph showing IL6 production by BMDC incubated with either intact LjN6.2, or fractional equivalents of nonviable lysed LjN6.2 components defined by ultracentrifugation as membrane (pellet components) or cytosolic (soluble) components. […]
Bacterial cells were incubated with 0.1 mm glass beads and homogenized through the use of a beadbeater (Qbiogene) according to manufacturers' instructions. […] Efficiency of bacterial disruption was assessed through the culture of bacterial lysates on agar plates under anaerobic conditions.

[5] = tested on: LN cells (CD11b+ leukocytes); test: CD11b and CD40 expression in pooled LN cells cultured with bacteria, flow cytometry; format: cell-based, NOD mice; details: NOD pooled LN cells, 48 hour incubation
Procedure: (§3) FIG. 12. LjN6.2 but not LrTD1 up-regulates expression of CD11b. LN cells (brachial, inguinal, cervical and mesenteric) were isolated from NOD mice and pooled, followed by culturing in the presence or absence of bacteria. After 48 hour incubation, supernatants were removed and cells were analyzed by flow cytometry. Please note that concentration 1 (Lj1 and Lr1) is 3 fold higher than concentration 2 (Lj2 and Lr2).
as §3, with “13. […]” for “12. LjN6.2 but not LrTD1 up-regulates expression of CD11b.”, “pooled” for “pooled,”, “culture” for “culturing”, “cytometry. CD11b^+ cells were first gated and then further analyzed for CD40 expression.” for “cytometry.”
Single cell suspensions of pooled LN (axillary, inguinal, brachial, mesenteric, and superficial cervical), and spleen were stained with the following mAbs for flow-cytometric analysis: anti-CD4-Pacific Blue (RM4-5), anti-MHC I-FitC (KH95), anti-CD11c-PE (N418; eBioscience, San Diego, Calif.), anti-B220-APC (RA3-6B2, eBioscience), anti-CD11b-A700 (M1/70), anti-CD11b-FitC (M1/70, eBioscience), […] (N418, eBioscience), anti CD86-A700 (GL1), anti-CD80-PE (16-10A1), DEC 205-APC (205yekta) and anti-MHC II-FC (39-10-8) mAb. […]

[6] = tested on: T lymphocytes; test: IFNγ production and IFNγ+/IL17+ T lymphocytes after bacterial treatment; format: cell-based
Procedure: FIG. 14. L. johnsonii modulates adaptive immune response. […] Also, L. johnsonii increased the percentages of IFNγ^+ and IL17^+ T lymphocytes in a dose dependent manner.
as §1

[7] = tested on: NOD mice; test: Systemic Th17 bias after oral feeding or pulsed DC vaccination; format: in vivo; details: oral feeding
Source text: In apparent contrast, T1D onset can also be inhibited through the generation of Foxp3^+ regulatory T cells which can be mediated by tolerogenic, immature DC. […] Therefore, restoration of DC function by oral administration of specific bacteria, or administration of a vaccine composed of gut flora modified DC, can be used to restore immune tolerance.

Substance | modulation of MHC ([1]; CD11c+ and CD11b+ APC, in contrast to LjN6.2) | Th17 bias [2] | T1D resistance [2] | levels of MHC classes I and II on CD11c+ DC ([1]; NOD derived CD11c+ DC, dose dependent) | frequency of both CD11b+ and CD11c+ leukocytes ([1]; NOD derived primary cell cultures, graded doses, anti-CD3, 48 hours) | frequency of CD11b+ and CD11c+ leukocytes ([1]; NOR cultures, graded doses, anti-CD3, 48 hours) | MHCI and MHCII expression on CD11c+ DC ([1]; NOR derived CD11c+ DC) | CD11b+MHCIhi leukocytes ([1]; both NOD and NOR cultures) | frequency of CD11b+MHCIIhi leukocytes ([1]; both NOD and NOR cultures) | DEC205 expression on CD11c+ DC [3] | IL6 production by BMDC [4] | CD11b expression [5] | CD40 expression on CD11b+ leukocytes [5] | IFNγ production ([6]; compared with L. reuteri) | percentages of IFNγ+ and IL17+ T lymphocytes ([6]; dose dependent) | systemic Th17 bias [7]
L. reuteri TD1 [LrTD1] | reduced, or negligible | nor mediated a Th17 bias | neither conferred T1D resistance | – | – | – | – | – | – | – | – | – | – | – | – | –
Lactobacillus johnsonii N6.2 [LjN6.2] | – | APC dependent, Th17 bias observed | sufficient to confer T1D resistance | upregulated | consistently up-regulated | only moderately increased | failed to specifically increase | decrease | increase | down-regulation | copious amounts | up-regulates | up-regulated | more profoundly than L. reuteri | increased | sufficient to mediate a systemic Th17 bias
